Laboratory results from the supplement of paper PMC8612539.
Converted amounts (≈) assume the structure as drawn.

Key:
Enterococcus spp. = experiment: minimum inhibitory concentration (MIC)
Description: (§1)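 Broth microdilution MIC (Sensititre BOPO7F bovine plate, CLSI methods) of 19 antimicrobials against field isolates of P. multocida, M. haemolytica, H. somni (deep nasopharyngeal swabs) and E. coli, Enterococcus spp. (rectal swabs) from weaned dairy heifers. Incubation 16-24 h at 35 C. MIC is the lowest concentration preventing visible growth. Values with <= or > lie at the tested range limits. Trimethoprim-sulfamethoxazole is given as the trimethoprim component of a 1:19 mixture.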

Mannheimia haemolytica = experiment: minimum inhibitory concentration (MIC)
Description: as §1

CO/N=C(\C(=O)N[C@@H]1C(=O)N2C(C(=O)O)=C(CSC(=O)c3ccco3)CS[C@H]12)c1csc(N)n1 [Ceftiofur]
Conditions	minimum inhibitory concentration [µg/mL]
Enterococcus spp., isolate (source animal id): 2	> 8
Enterococcus spp., isolate (source animal id): 35	> 8
Enterococcus spp., isolate (source animal id): 42	8 (≈ 15.3 µM)
Enterococcus spp., isolate (source animal id): 44	2 (≈ 3.82 µM)
Enterococcus spp., isolate (source animal id): 79	4 (≈ 7.64 µM)
Enterococcus spp., isolate (source animal id): 88	0.5 (≈ 0.955 µM)
Enterococcus spp., isolate (source animal id): 91	0.5 (≈ 0.955 µM)
Enterococcus spp., isolate (source animal id): 92	> 8
Enterococcus spp., isolate (source animal id): 111	0.5 (≈ 0.955 µM)
Enterococcus spp., isolate (source animal id): 122	> 8
Enterococcus spp., isolate (source animal id): 123	> 8
Enterococcus spp., isolate (source animal id): 133	> 8
Enterococcus spp., isolate (source animal id): 158	> 8
Enterococcus spp., isolate (source animal id): 168	> 8
Enterococcus spp., isolate (source animal id): 169	> 8
Enterococcus spp., isolate (source animal id): 171	> 8
Enterococcus spp., isolate (source animal id): 175	> 8
Enterococcus spp., isolate (source animal id): 177	> 8
Enterococcus spp., isolate (source animal id): 181	> 8
Enterococcus spp., isolate (source animal id): 182	> 8
Enterococcus spp., isolate (source animal id): 183	4 (≈ 7.64 µM)
Enterococcus spp., isolate (source animal id): 187	> 8
Enterococcus spp., isolate (source animal id): 190	> 8
Enterococcus spp., isolate (source animal id): 194	> 8
Enterococcus spp., isolate (source animal id): 195	> 8
Enterococcus spp., isolate (source animal id): 197	4 (≈ 7.64 µM)
Enterococcus spp., isolate (source animal id): 211	> 8
Enterococcus spp., isolate (source animal id): 214	8 (≈ 15.3 µM)
Enterococcus spp., isolate (source animal id): 222	> 8
Enterococcus spp., isolate (source animal id): 223	> 8
Enterococcus spp., isolate (source animal id): 228	> 8
Enterococcus spp., isolate (source animal id): 230	> 8
Enterococcus spp., isolate (source animal id): 235	> 8
Enterococcus spp., isolate (source animal id): 236	> 8
Enterococcus spp., isolate (source animal id): 239	2 (≈ 3.82 µM)
Enterococcus spp., isolate (source animal id): 241	> 8
Enterococcus spp., isolate (source animal id): 244	> 8
Enterococcus spp., isolate (source animal id): 246	> 8
Enterococcus spp., isolate (source animal id): 247	> 8
Enterococcus spp., isolate (source animal id): 250	> 8
Enterococcus spp., isolate (source animal id): 252	> 8
Enterococcus spp., isolate (source animal id): 268	0.5 (≈ 0.955 µM)
Enterococcus spp., isolate (source animal id): 282	> 8
Enterococcus spp., isolate (source animal id): 285	> 8
Enterococcus spp., isolate (source animal id): 289	8 (≈ 15.3 µM)
Enterococcus spp., isolate (source animal id): 290	8 (≈ 15.3 µM)
Enterococcus spp., isolate (source animal id): 296	> 8
Enterococcus spp., isolate (source animal id): 298	≤ 0.25
Enterococcus spp., isolate (source animal id): 301	8 (≈ 15.3 µM)
Enterococcus spp., isolate (source animal id): 310	> 8
Enterococcus spp., isolate (source animal id): 320	8 (≈ 15.3 µM)
Enterococcus spp., isolate (source animal id): 331	2 (≈ 3.82 µM)
Enterococcus spp., isolate (source animal id): 333	2 (≈ 3.82 µM)
Enterococcus spp., isolate (source animal id): 341	2 (≈ 3.82 µM)
Mannheimia haemolytica, isolate (source animal id): 8	≤ 0.25
Mannheimia haemolytica, isolate (source animal id): 13	≤ 0.25
Mannheimia haemolytica, isolate (source animal id): 18	≤ 0.25
Mannheimia haemolytica, isolate (source animal id): 21	≤ 0.25
Mannheimia haemolytica, isolate (source animal id): 25	≤ 0.25
Mannheimia haemolytica, isolate (source animal id): 27	≤ 0.25
Mannheimia haemolytica, isolate (source animal id): 28	2 (≈ 3.82 µM)
Mannheimia haemolytica, isolate (source animal id): 30	≤ 0.25
Mannheimia haemolytica, isolate (source animal id): 31	≤ 0.25
Mannheimia haemolytica, isolate (source animal id): 32	≤ 0.25
Mannheimia haemolytica, isolate (source animal id): 34	≤ 0.25
Mannheimia haemolytica, isolate (source animal id): 36	≤ 0.25
Mannheimia haemolytica, isolate (source animal id): 37	≤ 0.25
Mannheimia haemolytica, isolate (source animal id): 40	≤ 0.25
Mannheimia haemolytica, isolate (source animal id): 41	≤ 0.25
Mannheimia haemolytica, isolate (source animal id): 43	≤ 0.25
Mannheimia haemolytica, isolate (source animal id): 46	≤ 0.25
Mannheimia haemolytica, isolate (source animal id): 49	≤ 0.25
Mannheimia haemolytica, isolate (source animal id): 50	≤ 0.25
Mannheimia haemolytica, isolate (source animal id): 51	≤ 0.25
Mannheimia haemolytica, isolate (source animal id): 52	≤ 0.25
Mannheimia haemolytica, isolate (source animal id): 53	≤ 0.25
Mannheimia haemolytica, isolate (source animal id): 55	≤ 0.25
